Source: paper PMC10113987, “A tool for nuclear imaging of the SARS-CoV-2 entry receptor: molecular model and preclinical development of ACE2-selective radiopeptides” (EJNMMI Research, 2023)
Like-named read-outs stand apart in the source and are kept apart here. Positions of bridges follow the written chain, without caps; N, C: chain ends. Residues, ends and D or L forms follow the SMILES beside them. *: point of attachment. DOTA = O=C(O)CN1CCN(CC(=O)O)CCN(CC(=O)*)CCN(CC(=O)O)CC1; NODAGA = O=C(O)CN1CCN(CC(=O)O)CCN(C(CCC(=O)*)C(=O)O)CC1; Ahx = NCCCCCC(=O)O

Legend:
[1] = system: HEK-ACE2/HEK-ACE-xenografted mice; assay: Biodistribution in HEK-ACE2/HEK-ACE xenografted mice; format: in vivo, mouse; conditions: for HEK-ACE2 xenograft-to-kidney ratio: 3 h after injection
Protocol: (§1) All applicable international, national, and/or institutional guidelines for the care and use of animals were followed. In particular, all animal experiments were carried out according to the guidelines of the Swiss Regulations for Animal Welfare. Preclinical studies have been ethically approved by the Cantonal Committee of Animal Experimentation and permitted by the responsible cantonal authorities (License N° 75743). Five-week-old female CD1/nude mice and female immunocompetent FVB mice were obtained from Charles River Laboratories (Sulzfeld, Germany) and fed with standard rodent chow ad libitum. CD1/nude were subcutaneously inoculated with HEK-ACE2 cells (6–8 × 10^6 cells in 100 µL PBS) on the right shoulder and approximately one week later with HEK-ACE (4 × 10^6 cells in 100 µL PBS) on the left shoulder. Imaging and biodistribution studies were performed 2–4 weeks later when the xenografts reached a size of 100–300 mm^3.
(§2) Biodistribution studies in xenograft-bearing mice were performed 2–4 weeks after cell inoculation. Mice were intravenously injected with [^67Ga]Ga-DOTA-DX600, [^67Ga]Ga-NODAGA-DX600, [^67Ga]Ga-HBED-CC-DX600 or [^67Ga]Ga-DOTA-BPP9a (3 MBq, 0.5 nmol, 100 µL) diluted in NaCl 0.9% containing 0.05% BSA. The mice were sacrificed 3 h after administration of the radiopeptides. Selected tissues and organs were collected, weighed and counted using a γ-counter. The results were listed as a percentage of the injected activity per gram of tissue mass (% IA/g), using counts of a defined volume of the original injection solution measured simultaneously, resulting in decay-corrected values. Statistical analysis was performed by applying a one‐way ANOVA test with a Tukey’s multiple comparisons post‐test (GraphPad Prism software, version 8.3.1).

[2] = as above; format: in vivo, mouse; conditions: female, CD1/nude, mouse, iv, 0.5 nmol, total radioactivity, 3 h after i.v. injection, decay-corrected, n = 3
Protocol: as §1, §2

[3] = system: HEK-ACE2/HEK-ACE-xenografted mice; assay: SPECT/CT imaging and quantification of retained activity in HEK-ACE2/HEK-ACE xenografted mice; format: in vivo, mouse; conditions: for Activity retained in the kidneys relative to the 1 h p.i.-timepoint: SPECT/CT quantification, non-decay-corrected
Protocol: as §1
SPECT/CT imaging was performed using a four-head, multiplexing, multipinhole small-animal SPECT camera (NanoSPECT/CT™, Mediso Medical Imaging Systems, Budapest, Hungary). Each head was outfitted with a tungsten-based aperture of nine 1.4 mm-diameter pinholes and a thickness of 10 mm. CT scans of 7.5 min duration were followed by SPECT scans of ~ 50 min performed 1 h, 3 h and 24 h after injection of the respective radiopeptide (10 MBq, 0.5 nmol, 100 μL), diluted in NaCl 0.9% containing 0.05% BSA. During the scan, mice were anesthetized with a mixture of isoflurane and oxygen. The images were acquired using Nucline software (version 1.02, Mediso Ltd., Budapest, Hungary). The real-time CT reconstruction used a cone-beam-filtered backprojection. The reconstruction of SPECT data was performed with the HiSPECT software (version 1.4.3049, Scivis GmbH, Göttingen, Germany) using γ-energies of 93.20 keV (± 10%), 184.60 keV (± 10%) and 300.00 keV (± 10%) for gallium-67. All images were prepared using the VivoQuant post-processing software (version 3.0, inviCRO Imaging Services and Software, Boston, US). A Gauss post-reconstruction filter (full width at half maximum, 1 mm) was applied, and the scale of activity for gallium-67 was set as indicated on the SPECT/CT images. In order to estimate the wash-out of the DX600-based radiopeptides from the HEK-ACE2 xenografts and kidneys over time, the absolute amount of activity was determined in these tissues using the VivoQuant quantification tool. The accumulated activity (non-decay-corrected value in MBq) in the xenografts and kidneys, respectively, obtained at the 1 h p.i. timepoint was set as 100%. The percentage of activity retained in these tissues was determined at 3 h and 24 h p.i. based on the absolute activity determined at these timepoints.

[4] = In vitro stability in human blood plasma (TLC); format: in vitro ADME; conditions: 37 °C
Protocol: The ^67Ga-labeled DX600-radiopeptides (20 MBq/nmol) were incubated in human and mouse plasma (10 MBq/200 µL), respectively, at 37 °C. Aliquots were taken at variable time points up to 24 h for analysis using reversed phase thin layer chromatography (TLC) with citrate buffer (0.1 M, pH 5.5) as a mobile phase. Images of the TLC plates were obtained using a storage phosphor system (Cyclone Plus, PerkinElmer) and quantified using the OptiQuant software (version 5.0, Bright Instrument Co Ltd., PerkinElmer™) (Supplementary Information).
The radiopeptides were prepared and TLC experiments were performed immediately after radiolabeling by applying the diluted radiopeptides in saline (1 µL; ~0.05 MBq) and [^67Ga]GaCl3 solution (1 µL; ~0.05 MBq) on the TLC plates. The radiopeptides were incubated in mouse or human plasma (10 MBq/200 µL) at 37° C. TLC was performed with an aliquot of the plasma samples at the given timepoints (30 min, 1 h, 3 h and 24 h). The TLC plates were exposed to a phosphor screen followed by development using a storage phosphor system (Cyclone Plus, PerkinElmer). The quantification of the signals was carried out using the OptiQuant software (version 5.0, Bright Instrument Co Ltd., PerkinElmer^TM). The obtained chromatograms were analyzed by determination of the peak area of the radiolabeled peptide, the released gallium-67 as well as degradation products of unknown structure. The quantity of the intact product was expressed as percentage of the sum of integrated peak areas of the entire chromatogram.

[5] = HEK-ACE2 xenograft, read-out: Biodistribution: ACE2 xenograft (HEK-ACE2)
[6] = blood, read-out: Biodistribution: blood
[7] = bone, read-out: Biodistribution: bone
[8] = heart, read-out: Biodistribution: heart
[9] = intestines, read-out: Biodistribution: intestines
[10] = kidneys, read-out: Biodistribution: kidneys (renal retention)
[11] = liver, read-out: Biodistribution: liver
[12] = lung, read-out: Biodistribution: lung
[13] = muscle, read-out: Biodistribution: muscle
[14] = salivary glands, read-out: Biodistribution: salivary glands
[15] = spleen, read-out: Biodistribution: spleen
[16] = stomach, read-out: Biodistribution: stomach
[17] = 3 h after i.v. injection, decay-corrected, n = 3
[18] = HEK-ACE xenograft, read-out: Biodistribution: ACE xenograft (HEK-ACE)

Row | Structure (SMILES) | HEK-ACE2 xenograft-to-kidney ratio [1] | tissue uptake at 3 h [2, 5] [%ID/g] | tissue uptake at 3 h [2, 6] [%ID/g] | tissue uptake at 3 h [2, 7] [%ID/g] | tissue uptake at 3 h [2, 8] [%ID/g] | tissue uptake at 3 h [2, 9] [%ID/g] | tissue uptake at 3 h [2, 10] [%ID/g] | tissue uptake at 3 h [2, 11] [%ID/g] | tissue uptake at 3 h [2, 12] [%ID/g] | tissue uptake at 3 h [2, 13] [%ID/g] | tissue uptake at 3 h [2, 14] [%ID/g] | tissue uptake at 3 h [2, 15] [%ID/g] | tissue uptake at 3 h [2, 16] [%ID/g] | Activity retained in the kidneys relative to the 1 h p.i.-timepoint ([3]; 3 h p.i.) | Activity retained in the kidneys relative to the 1 h p.i.-timepoint ([3]; 24 h p.i.) | tissue uptake at 3 h [2, 18] [%ID/g] | further results
1 | CC(=O)N[C@@H](CCCCNC(=O)CCC(C(=O)O)N1CCN(CC(=O)O)CCN(CC(=O)O)CC1)C(=O)NCC(=O)N[C@@H](CC(=O)O)C(=O)N[C@@H](Cc1ccc(O)cc1)C(=O)N[C@@H](CO)C(=O)N[C@@H](Cc1c[nH]cn1)C(=O)N[C@H]1CSSC[C@@H](C(=O)N[C@H](C(=O)N[C@@H](Cc2ccc(O)cc2)C(=O)N2CCC[C@H]2C(=O)N[C@@H](CC(=O)O)C(=O)N2CCC[C@H]2C(=O)N[C@@H](CCC(=O)O)C(=O)NCC(=O)NCC(=O)NCC(N)=O)[C@@H](C)O)NC(=O)[C@H](CCCCN)NC(=O)[C@H](Cc2c[nH]c3ccccc23)NC(=O)[C@H](Cc2c[nH]c3ccccc23)NC(=O)[C@@H]2CCCN2C(=O)[C@H](Cc2ccc(O)cc2)NC(=O)[C@H](Cc2ccc(O)cc2)NC(=O)[C@H](CCCNC(=N)N)NC(=O)[C@H](CC(C)C)NC(=O)[C@@H]2CCCN2C(=O)[C@H](CO)NC1=O (some centres unmarked) [[^67Ga]Ga-NODAGA-DX600, metal not drawn] (Ac-K(NODAGA)GDYSHCSPLRYYPWWKCTYPDPEGGG-NH2; disulfide 7-18) | 0.67 ± 0.16 | 15.5 ± 2.2 | 0.02 ± 0.01 | 0.04 ± 0.01 | 0.04 ± 0.01 | 0.13 ± 0.07 | ~24 | 0.25 ± 0.04 | 0.08 ± 0.01 | 0.02 ± 0.01 | 0.05 ± 0.01 | 0.08 ± 0.01 | 0.06 ± 0.03 | ~ 85% | 35–45% |  | Intact radiopeptide in human blood plasma ([4]; whole incubation period of 24 h): > 99%
2 | CC[C@H](C)[C@H](NC(=O)[C@H](CCC(N)=O)NC(=O)[C@@H]1CCCN1C(=O)[C@H](CCCNC(=N)N)NC(=O)[C@@H]1CCCN1C(=O)[C@H](Cc1c[nH]c2ccccc12)NC(=O)[C@H](CCC(=O)O)NC(=O)CCCCCNC(=O)CCCCCNC(=O)CN1CCN(CC(=O)O)CCN(CC(=O)O)CCN(CC(=O)O)CC1)C(=O)N1CCC[C@H]1C(=O)N1CCC[C@H]1C(=O)O [[^67Ga]Ga-DOTA-BPP9a, metal not drawn] ({DOTA-Ahx-Ahx}-EWPRPQIPP-OH) |  |  | 0.05 ± 0.01 | 0.04 ± 0.01 | 0.03 | 0.06 ± 0.02 | 3.22 ± 0.8 | 0.09 ± 0.01 | 0.13 ± 0.03 | 0.02 ± 0.01 | 0.04 ± 0.01 | 0.08 ± 0.04 | 0.06 ± 0.05 |  |  | 3.17 ± 0.29 | Biodistribution: ACE2 xenograft (HEK-ACE2) [1, 17]: < 0.5 % IA/g; Biodistribution: ACE2 xenograft (HEK-ACE2) ([1]; 3 h after i.v. injection, decay-corrected, n = 3, listed as [^67Ga]Ga-DOTA- BPP9a): 0.19 ± 0.19 % IA/g; Uptake in HEK-ACE2 xenografts on SPECT/CT images ([3]; 1 h and 3 h after injection): no uptake; Uptake in HEK-ACE xenografts on SPECT/CT images ([3]; 1 h and 3 h after injection): accumulation
3 | CC(=O)N[C@@H](CCCCNC(=O)CN1CCN(CC(=O)O)CCN(CC(=O)O)CCN(CC(=O)O)CC1)C(=O)NCC(=O)N[C@@H](CC(=O)O)C(=O)N[C@@H](Cc1ccc(O)cc1)C(=O)N[C@@H](CO)C(=O)N[C@@H](Cc1c[nH]cn1)C(=O)N[C@H]1CSSC[C@@H](C(=O)N[C@H](C(=O)N[C@@H](Cc2ccc(O)cc2)C(=O)N2CCC[C@H]2C(=O)N[C@@H](CC(=O)O)C(=O)N2CCC[C@H]2C(=O)N[C@@H](CCC(=O)O)C(=O)NCC(=O)NCC(=O)NCC(N)=O)[C@@H](C)O)NC(=O)[C@H](CCCCN)NC(=O)[C@H](Cc2c[nH]c3ccccc23)NC(=O)[C@H](Cc2c[nH]c3ccccc23)NC(=O)[C@@H]2CCCN2C(=O)[C@H](Cc2ccc(O)cc2)NC(=O)[C@H](Cc2ccc(O)cc2)NC(=O)[C@H](CCCNC(=N)N)NC(=O)[C@H](CC(C)C)NC(=O)[C@@H]2CCCN2C(=O)[C@H](CO)NC1=O [[^67Ga]Ga-DOTA-DX600, metal not drawn] (Ac-K(DOTA)GDYSHCSPLRYYPWWKCTYPDPEGGG-NH2; disulfide 7-18) | 0.45 ± 0.02 | 10.7 ± 0.4 | 0.06 ± 0.01 | 0.06 ± 0.01 | 0.04 ± 0.01 | 0.09 ± 0.04 | ~24 | 0.22 ± 0.01 | 0.14 ± 0.06 | 0.02 | 0.05 ± 0.01 | 0.09 ± 0.01 | 0.04 ± 0.01 | ~ 85% | 35–45% | < 0.5 | Biodistribution: ACE xenograft (HEK-ACE) [1, 17]: 0.32 ± 0.18 % IA/g; Released gallium-67 in human blood plasma ([4]; 24 h): > 30%
